pKi: −log10 of the molar value. Bounds are passed on as bounds.

In experiment [1] the target is T1, Cathepsin K (Homo sapiens, UniProt P43235).
T1 sequence (P43235 whole entry): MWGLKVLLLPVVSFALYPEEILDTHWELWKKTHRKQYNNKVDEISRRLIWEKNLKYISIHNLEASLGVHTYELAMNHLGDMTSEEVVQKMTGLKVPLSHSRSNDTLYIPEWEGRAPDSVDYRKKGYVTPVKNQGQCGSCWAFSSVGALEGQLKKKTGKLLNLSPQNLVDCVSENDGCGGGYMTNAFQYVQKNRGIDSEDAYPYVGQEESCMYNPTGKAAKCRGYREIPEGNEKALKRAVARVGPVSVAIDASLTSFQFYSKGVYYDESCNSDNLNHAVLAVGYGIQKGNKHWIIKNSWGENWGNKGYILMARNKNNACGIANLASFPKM
Kind of experiment: Inhibition constant against human cathepsin K in fluorescence assay using Cbz-Phe-Arg-AMC.

The next experiment concerns the target Procathepsin L (Homo sapiens, UniProt P07711). Kind of experiment: Inhibition constant against human cathepsin L using Cbz-Phe-Arg-AMC.
Experiment [2] deals with T2, Cathepsin K (Rattus norvegicus, UniProt O35186).
T2 sequence (O35186 whole entry): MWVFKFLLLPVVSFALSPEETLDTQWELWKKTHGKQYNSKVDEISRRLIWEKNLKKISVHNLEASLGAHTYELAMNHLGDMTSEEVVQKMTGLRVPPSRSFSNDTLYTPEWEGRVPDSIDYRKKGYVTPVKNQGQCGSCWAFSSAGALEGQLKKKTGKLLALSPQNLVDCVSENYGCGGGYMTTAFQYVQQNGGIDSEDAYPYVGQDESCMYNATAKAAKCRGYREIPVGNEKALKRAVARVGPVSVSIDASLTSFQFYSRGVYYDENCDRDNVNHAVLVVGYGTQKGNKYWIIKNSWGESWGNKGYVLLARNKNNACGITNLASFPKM
Kind of experiment: Inhibition constant against rat cathepsin K.

The target in a further experiment is Cathepsin B (Homo sapiens, UniProt P07858). Kind of experiment: Inhibition constant against human cathepsin B in fluorescence assay using Cbz-Phe-Arg-AMC.
Experiment [3] addresses T1, Cathepsin K. Kind of experiment: Inhibition constant against human cathepsin K.
The target of a further experiment is T3, Pro-cathepsin H (Homo sapiens, UniProt P09668).
T3 sequence (P09668 whole entry): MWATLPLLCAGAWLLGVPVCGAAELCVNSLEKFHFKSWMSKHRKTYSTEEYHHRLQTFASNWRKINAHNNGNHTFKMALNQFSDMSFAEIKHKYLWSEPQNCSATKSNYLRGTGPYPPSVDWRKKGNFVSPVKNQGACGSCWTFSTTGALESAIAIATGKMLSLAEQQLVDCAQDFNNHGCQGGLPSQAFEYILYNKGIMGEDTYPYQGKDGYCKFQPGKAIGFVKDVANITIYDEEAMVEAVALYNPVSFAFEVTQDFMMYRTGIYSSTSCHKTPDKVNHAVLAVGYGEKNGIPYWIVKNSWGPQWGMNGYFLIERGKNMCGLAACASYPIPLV
Put plainly: Inhibition constant against human cathepsin H using L-Arg-b-naphthalamide.

Chain of Procathepsin L (P07711 whole entry): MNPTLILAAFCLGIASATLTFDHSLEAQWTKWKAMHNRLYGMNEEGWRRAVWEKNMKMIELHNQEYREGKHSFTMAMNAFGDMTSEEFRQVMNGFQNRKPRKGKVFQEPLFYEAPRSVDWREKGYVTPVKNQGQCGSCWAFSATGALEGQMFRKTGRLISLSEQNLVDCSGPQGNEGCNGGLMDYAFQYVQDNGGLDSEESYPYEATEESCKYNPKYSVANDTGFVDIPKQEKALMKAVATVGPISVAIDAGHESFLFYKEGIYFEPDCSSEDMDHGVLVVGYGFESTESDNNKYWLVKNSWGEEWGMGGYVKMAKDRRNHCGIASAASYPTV

Take `CC[C@@H](Cc1ccccc1)OC(=O)NN(C)C#N`: the pKi was 10.49 on Cathepsin K [1], 10.44 on Procathepsin L, 10.14 at Cathepsin K [2] and 9.60 at Cathepsin B. The molecule `C[C@@H](C#N)NC(=O)O[C@@H](C)CC1CCCCC1` showed a negative logarithm of the Ki (pKi) on Cathepsin K [1] of under 4.89. In turn, `C[C@@H](CC1CCCCC1)OC(=O)N(C)N(C)C#N` showed a pKi on Cathepsin K [1] of 7.21.

On to `CCCN(C#N)NC(=O)O[C@@H](C)CC1CCCCC1`, for which the negative-log Ki (pKi) on Cathepsin K [1] was 11.40. On to `N#CN1CCCC1` [CYANO-PYRROLIDINE], for which the negative-log Ki (pKi) at Cathepsin K [3] was 5.68. Regarding `C[C@@H](CC1CCCCC1)OC(=O)NN(C)C#N`, the pKi is 8.85 at Pro-cathepsin H, 11.05 at Cathepsin K [1], 10.60 on Procathepsin L and 10.11 at Cathepsin B. The molecule `C[C@@H](CC1CCCCC1)OC(=O)[C@H](C)N(C)C#N` had a pKi at Cathepsin K [1] of 5.64.

As to `CC(C)N(C#N)NC(=O)O[C@@H](C)CC1CCCCC1`, the pKi was 9.34 at Pro-cathepsin H, 10.72 at Cathepsin K [1], 9.10 at Procathepsin L and 8.89 at Cathepsin B.

For the molecule `C[C@@H](CC1CCCCC1)OC(=O)CN(C)C#N`, the pKi on Pro-cathepsin H is under 4.89; at Cathepsin K [1] it was 7.59; at Procathepsin L it was 5.82; at Cathepsin B it was 5.59. In turn, `C[C@@H](CC1CCCCC1)OC(=O)NN(C#N)Cc1ccccc1` gave a negative-log Ki (pKi) on Cathepsin K [1] of 11.22.

Consider `C[C@@H](CC1CCCCC1)NC(=O)CN(C)C#N`, for which, on Cathepsin K [1], the pKi is 6.08. `CCN(C#N)NC(=O)O[C@@H](C)CC1CCCCC1` gave a pKi on Cathepsin K [1] of 11.52. In turn, `C[C@@H](CC1CCCCC1)OC(=O)NN(C#N)C(C)(C)C` gave a negative-log Ki (pKi) on Cathepsin K [1] of 5.82. `C[C@@H](CC1CCCCC1)OC(=O)[C@@H]1CCCN1C#N` showed a pKi at Cathepsin K [3] of 8.74. As to `C[C@H](C(=O)O[C@@H](C)CC1CCCCC1)N(C)C#N`, the pKi on Cathepsin K [1] is under 4.89. Molecule `CC(C)(C)OC(=O)[C@@H]1CCCN1C#N` showed a negative-log Ki (pKi) at Cathepsin K [3] of 7.22. In the case of `C[C@@H](CC1CCCCC1)OC(=O)NCC#N`, the negative logarithm of the Ki (pKi) on Cathepsin K [1] is 5.10. For the molecule `C[C@H](C#N)NC(=O)O[C@@H](C)CC1CCCCC1`, the pKi on Cathepsin K [1] is under 4.89. Take `CCCCN(C#N)NC(=O)O[C@@H](C)CC1CCCCC1`: the negative logarithm of the Ki (pKi) on Cathepsin K [1] is 11.15. As for `CC(C)CN(C#N)NC(=O)O[C@@H](C)CC1CCCCC1`, the pKi on Cathepsin K [1] is 11.40.

These data come from ChEMBL document CHEMBL1139621, “Acyclic cyanamide-based inhibitors of cathepsin K” (Bioorg Med Chem Lett, 2005).
